Our source for the Ki, KI and Kd values is PMC2275798 (The Journal of biological chemistry, 2007).

The target of assay [1] is T1, LSECtin carbohydrate-recognition domain (CRD) (Homo sapiens, UniProt Q6UXB4).
T1 sequence (Q6UXB4 160-293): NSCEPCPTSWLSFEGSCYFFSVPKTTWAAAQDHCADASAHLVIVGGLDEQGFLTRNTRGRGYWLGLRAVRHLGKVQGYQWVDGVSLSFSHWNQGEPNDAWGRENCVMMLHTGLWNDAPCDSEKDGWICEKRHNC
Format: binding.

In assay [2] the target is T1, LSECtin carbohydrate-recognition domain (CRD). Format: binding. This is another data set of the same source.
Assay [3] concerns the target T2, Ebola virus surface glycoprotein GP1 (Fc fusion) GP1 (Zaire ebolavirus, UniProt Q05320).
T2 chain: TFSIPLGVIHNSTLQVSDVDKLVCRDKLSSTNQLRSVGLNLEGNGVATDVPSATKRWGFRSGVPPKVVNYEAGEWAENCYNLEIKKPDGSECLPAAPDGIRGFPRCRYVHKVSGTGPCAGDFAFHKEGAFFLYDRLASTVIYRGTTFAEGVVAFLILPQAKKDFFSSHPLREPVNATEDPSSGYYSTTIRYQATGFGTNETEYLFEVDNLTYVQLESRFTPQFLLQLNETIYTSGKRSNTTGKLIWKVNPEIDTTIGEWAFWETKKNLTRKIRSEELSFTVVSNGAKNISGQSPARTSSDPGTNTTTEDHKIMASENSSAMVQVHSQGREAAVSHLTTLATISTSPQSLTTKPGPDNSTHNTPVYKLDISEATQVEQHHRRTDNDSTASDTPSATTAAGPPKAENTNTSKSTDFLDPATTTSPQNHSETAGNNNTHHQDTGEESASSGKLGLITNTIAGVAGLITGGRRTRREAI

In assay [1], `CC(=O)N[C@H]1[C@H](O[C@@H]2C(O)O[C@H](CO)[C@@H](O)[C@@H]2O)O[C@H](CO)[C@@H](O)[C@@H]1O` (stereo partly drawn) [GlcNAcβ1-2Man] had a Ki of 3500 nM.

With `OC[C@H]1O[C@H](OC[C@H]2OC(O)[C@@H](O)[C@@H](O[C@H]3O[C@H](CO)[C@@H](O)[C@H](O)[C@@H]3O)[C@@H]2O)[C@@H](O)[C@@H](O)[C@@H]1O` (stereo partly drawn) [branched trimannose oligosaccharide], the KI result in assay [2] is given as “The branched trimannose oligosaccharide, which forms the core of the complex glycans”.

B1: LSECtin CRD (protein)
chain: FEGSCYFFSVPKTTWAAAQDHCADASAHLVIVGGLDEQGFLTRNTRGRGYWLGLRAVRHLGKVQGYQWVDGVSLSFSHWNQGEPNDAWGRENCVMMLHTGLWNDAPCDSEKDGWIC
Turning to B1, binding in assay [3] was characterised by a dissociation constant (Kd) of 3.7 nM.

As usually defined, the Ki is the equilibrium dissociation constant of an inhibitor or competing ligand from its target. A low value points to a stronger hold on the target. The Kd is the free concentration of one partner at which half of the binding sites on the other are occupied at equilibrium, for simple one-to-one binding.
